Measurements as given in ChEMBL document CHEMBL5244201, “Non-covalent albumin-binding ligands for extending the circulating half-life of small biotherapeutics” (Medchemcomm, 2019).
One block for each compound: values may come before it.

Columns and labels:
Albumin [1] = biological target: T1, Albumin (Homo sapiens, UniProt P02768); experiment: Binding affinity to human serum albumin by fluorescence polarization assay
[2] = Terminal half life in iv dosed mouse; assay type: ADME, organism-based; conditions: in vivo, read-out: beta t1/2 (converted)
Albumin [3] = biological target: T1, Albumin; experiment: Binding affinity to human albumin assessed as dissociation constant by fluorescence polarization assay
Albumin [4] = biological target: T2, Albumin (Mus musculus, UniProt P07724); experiment: Binding affinity to mouse albumin assessed as dissociation constant by fluorescence polarization assay
Albumin [5] = biological target: T1, Albumin; experiment: Binding affinity to human albumin assessed as dissociation constant by ITC method
Albumin [6] = biological target: T1, Albumin; experiment: Binding affinity to human albumin assessed as dissociation constant
Macaca fascicularis = species on record: Macaca fascicularis; experiment: Terminal half life in monkey; conditions: cynomolgus monkey, in vivo; read-out: beta t1/2 (converted)
Albumin [7] = biological target: T1, Albumin; experiment: Binding affinity to human albumin
Albumin [8] = biological target: T2, Albumin; experiment: Binding affinity to mouse albumin

T1 sequence (P02768 whole entry): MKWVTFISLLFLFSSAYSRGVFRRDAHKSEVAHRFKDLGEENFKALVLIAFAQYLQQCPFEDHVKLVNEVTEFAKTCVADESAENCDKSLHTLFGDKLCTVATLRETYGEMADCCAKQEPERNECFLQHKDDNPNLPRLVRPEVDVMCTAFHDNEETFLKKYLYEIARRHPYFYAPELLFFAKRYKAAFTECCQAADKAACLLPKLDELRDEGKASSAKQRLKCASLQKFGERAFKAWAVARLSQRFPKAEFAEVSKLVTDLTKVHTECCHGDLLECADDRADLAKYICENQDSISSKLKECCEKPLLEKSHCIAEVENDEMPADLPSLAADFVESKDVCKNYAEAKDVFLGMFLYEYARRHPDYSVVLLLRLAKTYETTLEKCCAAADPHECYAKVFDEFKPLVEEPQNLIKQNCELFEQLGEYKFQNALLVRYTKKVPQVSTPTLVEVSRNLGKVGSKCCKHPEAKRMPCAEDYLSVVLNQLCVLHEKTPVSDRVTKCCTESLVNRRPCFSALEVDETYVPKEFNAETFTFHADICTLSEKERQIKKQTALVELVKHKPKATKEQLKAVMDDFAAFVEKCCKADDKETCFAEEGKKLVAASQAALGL
T2 sequence (P07724 whole entry): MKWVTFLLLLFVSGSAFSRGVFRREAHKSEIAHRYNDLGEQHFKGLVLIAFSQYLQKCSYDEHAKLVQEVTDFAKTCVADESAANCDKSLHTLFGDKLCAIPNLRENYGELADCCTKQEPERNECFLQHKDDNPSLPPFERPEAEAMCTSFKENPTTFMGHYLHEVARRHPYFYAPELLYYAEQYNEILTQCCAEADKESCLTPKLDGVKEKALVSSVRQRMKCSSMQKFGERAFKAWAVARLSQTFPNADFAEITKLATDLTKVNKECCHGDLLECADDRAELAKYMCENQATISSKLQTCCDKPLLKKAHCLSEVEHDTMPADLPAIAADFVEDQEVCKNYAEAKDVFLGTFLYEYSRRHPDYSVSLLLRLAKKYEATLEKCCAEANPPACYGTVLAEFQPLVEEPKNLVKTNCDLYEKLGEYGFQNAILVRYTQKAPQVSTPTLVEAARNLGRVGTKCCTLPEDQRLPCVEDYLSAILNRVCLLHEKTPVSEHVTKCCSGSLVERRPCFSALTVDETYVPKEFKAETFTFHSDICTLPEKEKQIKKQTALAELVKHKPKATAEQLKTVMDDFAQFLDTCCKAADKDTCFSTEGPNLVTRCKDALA

Kd (Albumin [1]): 6600 nM
Compound: Cc1cccc(OCc2cn(CCCC[C@@H]3NC(=O)CNC(=O)[C@@H]4CCCN4C(=O)[C@H](CCCCNC(=O)c4cnc(N5CCOCC5)c(N)c4)NC(=O)[C@H](CCCCNC(=S)Nc4ccc5c(c4)C(=O)OC54c5ccc(O)cc5Oc5cc(O)ccc54)NC(=O)[C@H](C)NC(=O)CNC(=O)[C@@H]4CCCN4C(=O)[C@H](CCCCNC(=O)c4cccc(Oc5ccccc5)c4)NC(=O)[C@H](C)NC3=O)nn2)n1

half-life [2]: 8.25 h | Kd (Albumin [3]): 108 nM | Kd (Albumin [4]): 118 nM | Kd (Albumin [5]): 330 nM
Compound: O=C(CCCc1ccc(I)cc1)NCCCC[C@@H](NC(=O)c1ccc(-c2c3ccc(=O)cc-3oc3cc(O)ccc23)c(C(=O)O)c1)C(=O)O

Kd (Albumin [6]): 15 nM | half-life (Macaca fascicularis): 31.2 h
Compound: Ac-WWEQDRDWDFDVFGGGTP-NH2

Kd (Albumin [7]): 3200 nM | Kd (Albumin [8]): 3600 nM | half-life [2]: 16.6 h
Compound: O=C(CCCc1ccc(I)cc1)NCCCCC(NC(=O)c1ccc2c(c1)C(=O)OC21c2ccc(O)cc2Oc2cc(O)ccc21)C(=O)O (stereo not given)
